Laboratory results reported in patent US9048628B2, “Solid-state dye laser medium and process for production thereof” (KYUSHU UNIVERSITY, NATIONAL UNIVERSITY CORPORATION, priority 2011, dated 2015).

Columns and labels:
[1] = Maximum concentration soluble in polydimethylsiloxane (PDMS) when silicone oil was used; format: physicochemical; settings: silicone oil used as in Example 2
Text: A DFB laser was produced in the same manner as in Example 1, except that a silicone oil (KF-1065, produced by Shin-Etsu Chemical Co., Ltd.) was used instead of toluene, and that the step of removing toluene was not performed.
(§1) Using the dyes indicated below, maximum concentrations at which they were soluble in polydimethylsiloxane (PDMS) were investigated in the same manners as in Examples 1 and 2.

[2] = Maximum concentration soluble in polydimethylsiloxane (PDMS) when toluene was used; format: physicochemical
Experimental: Pyrromethene 597 (PM597, produced by Exciton) as a dye was dissolved in toluene to prepare a solution of a saturated concentration (100 to 130 mmol/L). This dye solution was mixed at a mixing ratio of […] (volume ratio) with a dimethylsiloxane oligomer (SIM-360, produced by Shin-Etsu Chemical Co., Ltd.) being a polydimethylsiloxane precursor, and the mixture was stirred for 2 days for thorough uniform dispersing. Then, the dispersion was further heated at 72° C. to evaporate toluene, thus adjusting the system to a final dye concentration of 3 mmol/L.
as §1

[3] = dye unchanged, without silicone oil

| Behavior of dissolution in PDMS when silicone oil was used: State [1] | Highest concentration dissolving in dimethylsiloxane [2, 3] [mmol/L] | Behavior of dissolution in PDMS when toluene was used: State ([2]; toluene used as in Example 1) | SMILES | Dissolution in dimethylsiloxane (in words) [2, 3] |
| --- | --- | --- | --- | --- |
| dispersed |  |  | CC1=C(S(=O)(=O)[O-])C(C)=[N+]2C1=C(C)c1c(C)c(S(=O)(=O)[O-])c(C)n1[B-]2(F)F.[Na+].[Na+] [PM556] |  |
| dissolved |  |  | CCC1=C(C)C2=C(C)c3c(C)c(CC)c(C)n3[B-](F)(F)[N+]2=C1C [PM567] |  |
| lumpy→ |  |  | CCCCC1=C(C)C2=C(C)c3c(C)c(CCCC)c(C)n3[B-](F)(F)[N+]2=C1C [PM580] |  |
| dissolved | 3 | dissolved | CC1=C(C(C)(C)C)C(C)=[N+]2C1=C(C)c1c(C)c(C(C)(C)C)c(C)n1[B-]2(F)F [PM597] |  |
| dissolved |  |  | CCC1=C(C)C2=C(COC(C)=O)c3c(C)c(CC)c(C)n3[B-](F)(F)[N+]2=C1C [PM605] |  |
| dissolved |  |  | CC1=C(C)C(C)=[N+]2C1=C(C#N)c1c(C)c(C)c(C)n1[B-]2(F)F [PM650] | poses difficulty in dissolving to a lower limit concentration at which laser oscillation becomes possible |
| lumpy→ |  |  | CCN=c1cc2oc3cc(NCC)c(C)cc3c(-c3ccccc3C(=O)OCC)c-2cc1C.Cl [Rh6G] |  |
